# Laboratory results from ChEMBL document CHEMBL5038625, “Application of the dual-tail approach for the design and synthesis of novel Thiopyrimidine-Benzenesulfonamide hybrids as selective carbonic anhydrase inhibitors” (Eur J Med Chem, 2022).
# Tests used:
# Carbonic anhydrase 9 = Carbonic anhydrase 9 (Homo sapiens, UniProt Q16790); experiment: Inhibition of human CA9 preincubated for 15 mins by phenol red dye based stopped flow CO2 hydration assay
# T47D [1] = experiment: Antiproliferative activity against human T47D cells assessed as reduction in cell viability incubated for 24 hrs by sulforhodamine B assay; format: functional, cell-based
# MDA-MB-231 [2] = experiment: Antiproliferative activity against human MDA-MB-231 cells assessed as reduction in cell viability incubated for 24 hrs by sulforhodamine B assay; format: functional, cell-based; conditions: MDA-MB-231, 24 h
# MCF7 [3] = experiment: Antiproliferative activity against human MCF7 cells assessed as reduction in cell viability incubated for 24 hrs by sulforhodamine B assay; format: functional, cell-based; conditions: MCF7, 24 h
# HCT-15 = experiment: Antiproliferative activity against human HCT-15 cells assessed as cell growth inhibition at 10 uM incubated for 24 hrs by sulforhodamine B assay; format: functional; conditions: read-out: GI
# Carbonic anhydrase 1 = Carbonic anhydrase 1 (Homo sapiens, UniProt P00915); experiment: Inhibition of human CA1 preincubated for 15 mins by phenol red dye based stopped flow CO2 hydration assay
# MCF7 [4] = experiment: Antiproliferative activity against human MCF7 cells assessed as cell growth inhibition at 10 uM incubated for 24 hrs by sulforhodamine B assay; format: functional; conditions: read-out: GI
# PC-3 = experiment: Antiproliferative activity against human PC-3 cells assessed as cell growth inhibition at 10 uM incubated for 24 hrs by sulforhodamine B assay; format: functional; conditions: read-out: GI
# RXF 393 = experiment: Antiproliferative activity against human RXF 393 cells assessed as cell growth inhibition at 10 uM incubated for 24 hrs by sulforhodamine B assay; format: functional; conditions: read-out: GI
# Carbonic anhydrase 2 = Carbonic anhydrase 2 (Homo sapiens, UniProt P00918); experiment: Inhibition of human CA2 preincubated for 15 mins by phenol red dye based stopped flow CO2 hydration assay
# CAKI-1 = experiment: Antiproliferative activity against human CAKI-1 cells assessed as cell growth inhibition at 10 uM incubated for 24 hrs by sulforhodamine B assay; format: functional; conditions: read-out: GI
# UO-31 = experiment: Antiproliferative activity against human UO-31 cells assessed as cell growth inhibition at 10 uM incubated for 24 hrs by sulforhodamine B assay; format: functional; conditions: read-out: GI
# LOX IMVI = experiment: Antiproliferative activity against human LOX IMVI cells assessed as cell growth inhibition at 10 uM incubated for 24 hrs by sulforhodamine B assay; format: functional; conditions: read-out: GI
# SR = experiment: Antiproliferative activity against human SR cells assessed as cell growth inhibition at 10 uM incubated for 24 hrs by sulforhodamine B assay; format: functional; conditions: read-out: GI
# NCI-H23 = experiment: Antiproliferative activity against human NCI-H23 cells assessed as cell growth inhibition at 10 uM incubated for 24 hrs by sulforhodamine B assay; format: functional; conditions: read-out: GI
# SF-539 = experiment: Antiproliferative activity against human SF-539 cells assessed as cell growth inhibition at 10 uM incubated for 24 hrs by sulforhodamine B assay; format: functional; conditions: read-out: GI
# HOP-92 = experiment: Antiproliferative activity against human HOP-92 cells assessed as cell growth inhibition at 10 uM incubated for 24 hrs by sulforhodamine B assay; format: functional; conditions: read-out: GI
# NCI-H226 = experiment: Antiproliferative activity against human NCI-H226 cells assessed as cell growth inhibition at 10 uM incubated for 24 hrs by sulforhodamine B assay; format: functional; conditions: read-out: GI
# HCT-116 = experiment: Antiproliferative activity against human HCT-116 cells assessed as cell growth inhibition at 10 uM incubated for 24 hrs by sulforhodamine B assay; format: functional; conditions: read-out: GI
# T47D [5] = experiment: Antiproliferative activity against human T47D cells assessed as cell growth inhibition at 10 uM incubated for 24 hrs by sulforhodamine B assay; format: functional; conditions: read-out: GI
# SN12C = experiment: Antiproliferative activity against human SN12C cells assessed as cell growth inhibition at 10 uM incubated for 24 hrs by sulforhodamine B assay; format: functional; conditions: read-out: GI
# MOLT-4 = experiment: Antiproliferative activity against human MOLT-4 cells assessed as cell growth inhibition at 10 uM incubated for 24 hrs by sulforhodamine B assay; format: functional; conditions: read-out: GI
# MDA-MB-231 [6] = experiment: Antiproliferative activity against human MDA-MB-231 cells assessed as cell growth inhibition at 10 uM incubated for 24 hrs by sulforhodamine B assay; format: functional; conditions: read-out: GI
# K562 = experiment: Antiproliferative activity against human K562 cells assessed as cell growth inhibition at 10 uM incubated for 24 hrs by sulforhodamine B assay; format: functional; conditions: read-out: GI
# CCRF-CEM = experiment: Antiproliferative activity against human CCRF-CEM cells assessed as cell growth inhibition at 10 uM incubated for 24 hrs by sulforhodamine B assay; format: functional; conditions: read-out: GI
# UACC-62 = experiment: Antiproliferative activity against human UACC-62 cells assessed as cell growth inhibition at 10 uM incubated for 24 hrs by sulforhodamine B assay; format: functional; conditions: read-out: GI
# NCI-H522 = experiment: Antiproliferative activity against human NCI-H522 cells assessed as cell growth inhibition at 10 uM incubated for 24 hrs by sulforhodamine B assay; format: functional; conditions: read-out: GI
# U-251 = experiment: Antiproliferative activity against human U-251 cells assessed as cell growth inhibition at 10 uM incubated for 24 hrs by sulforhodamine B assay; format: functional; conditions: read-out: GI
# OVCAR-4 = experiment: Antiproliferative activity against human OVCAR-4 cells assessed as cell growth inhibition at 10 uM incubated for 24 hrs by sulforhodamine B assay; format: functional; conditions: read-out: GI
# A549 = experiment: Antiproliferative activity against human A549 cells assessed as cell growth inhibition at 10 uM incubated for 24 hrs by sulforhodamine B assay; format: functional; conditions: read-out: GI
# Malme-3M = experiment: Antiproliferative activity against human Malme-3M cells assessed as cell growth inhibition at 10 uM incubated for 24 hrs by sulforhodamine B assay; format: functional; conditions: read-out: GI
# KM12 = experiment: Antiproliferative activity against human KM12 cells assessed as cell growth inhibition at 10 uM incubated for 24 hrs by sulforhodamine B assay; format: functional; conditions: read-out: GI
# RPMI-8226 = experiment: Antiproliferative activity against human RPMI-8226 cells assessed as cell growth inhibition at 10 uM incubated for 24 hrs by sulforhodamine B assay; format: functional; conditions: read-out: GI
# SNB-75 = experiment: Antiproliferative activity against human SNB-75 cells assessed as cell growth inhibition at 10 uM incubated for 24 hrs by sulforhodamine B assay; format: functional; conditions: read-out: GI
# ACHN = experiment: Antiproliferative activity against human ACHN cells assessed as cell growth inhibition at 10 uM incubated for 24 hrs by sulforhodamine B assay; format: functional; conditions: read-out: GI
# MDA-MB-468 = experiment: Antiproliferative activity against human MDA-MB-468 cells assessed as cell growth inhibition at 10 uM incubated for 24 hrs by sulforhodamine B assay; format: functional; conditions: read-out: GI
# SNB-19 = experiment: Antiproliferative activity against human SNB-19 cells assessed as cell growth inhibition at 10 uM incubated for 24 hrs by sulforhodamine B assay; format: functional; conditions: read-out: GI
# HL-60 = experiment: Antiproliferative activity against human HL-60 cells assessed as cell growth inhibition at 10 uM incubated for 24 hrs by sulforhodamine B assay; format: functional; conditions: read-out: GI
# Carbonic anhydrase 1, sequence (P00915 whole entry): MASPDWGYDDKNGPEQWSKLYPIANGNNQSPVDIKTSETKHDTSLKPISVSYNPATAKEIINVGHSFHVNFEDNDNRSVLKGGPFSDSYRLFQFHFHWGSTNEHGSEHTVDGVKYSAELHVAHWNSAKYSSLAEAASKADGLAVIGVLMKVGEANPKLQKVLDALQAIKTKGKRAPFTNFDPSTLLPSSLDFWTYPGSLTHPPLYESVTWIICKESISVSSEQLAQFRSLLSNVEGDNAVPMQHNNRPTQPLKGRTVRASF
Structure (SMILES),Ki (Carbonic anhydrase 9) [µM],IC50 (T47D [1]) [µM],IC50 (MDA-MB-231 [2]) [µM],IC50 (MCF7 [3]) [µM],inhibition of growth at 10 µM (HCT-15) [%],inhibition of growth at 10 µM (PC-3) [%],Ki (Carbonic anhydrase 2) [µM],inhibition of growth at 10 µM (CAKI-1) [%],inhibition of growth at 10 µM (UO-31) [%],inhibition of growth at 10 µM (SR) [%],inhibition of growth at 10 µM (SF-539) [%],inhibition of growth at 10 µM (K562) [%],further results
COc1ccc(C(=O)CSc2nc(Nc3ccc(S(N)(=O)=O)cc3)c(C#N)c(-c3ccc(C)cc3)n2)cc1,8.71,,,,,,,,,,,,
NS(=O)(=O)c1ccc(Nc2cc(-c3ccccc3)nc(SCC(=O)c3ccccc3)n2)cc1,0.0858,44.4,26,44.5,,,,,,,,,
Cc1ccc(-c2nc(SCC(=O)c3ccccc3)nc(Nc3cccc(S(N)(=O)=O)c3)c2C#N)cc1,7.64,,,,5.35,6.2,> 20,13.6,24.4,7.6,14.1,,Ki (Carbonic anhydrase 1): > 20 µM; inhibition of growth at 10 µM (MCF7 [4]): 11.9%; inhibition of growth at 10 µM (RXF 393): 12.6%; inhibition of growth at 10 µM (LOX IMVI): 11.3%; inhibition of growth at 10 µM (NCI-H23): 5.21%; inhibition of growth at 10 µM (HOP-92): 65.2%
COc1ccc(C(=O)CSc2nc(Nc3ccc(S(N)(=O)=O)cc3)c(C#N)c(-c3cc(OC)ccc3OC)n2)cc1,8.93,,,,,,,,,,,,Ki (Carbonic anhydrase 1): > 20 µM
COc1ccc(C(=O)CSc2nc(Nc3cccc(S(N)(=O)=O)c3)c(C#N)c(-c3ccc(C)cc3)n2)cc1,0.878,,,,,,,,,,,,
Cc1ccc(-c2nc(SCC(=O)c3ccc(Br)cc3)nc(Nc3cccc(S(N)(=O)=O)c3)c2C#N)cc1,0.0887,60,> 100,> 100,5.65,13.4,,20,36.7,11.3,17.5,6.32,inhibition of growth at 10 µM (MCF7 [4]): 7.76%; inhibition of growth at 10 µM (RXF 393): 17.6%; inhibition of growth at 10 µM (NCI-H226): 12.7%; inhibition of growth at 10 µM (HCT-116): 8.06%; inhibition of growth at 10 µM (T47D [5]): 6.01%; inhibition of growth at 10 µM (SN12C): 5.02%; inhibition of growth at 10 µM (LOX IMVI): 11.8%; inhibition of growth at 10 µM (MOLT-4): 9.7%; inhibition of growth at 10 µM (MDA-MB-231 [6]): 6.75%; inhibition of growth at 10 µM (NCI-H23): 7.38%; inhibition of growth at 10 µM (CCRF-CEM): 6.1%; inhibition of growth at 10 µM (HOP-92): 67.2%
COc1ccc(C(=O)CSc2nc(Nc3ccc(S(N)(=O)=O)cc3)c(C#N)c(C(C)C)n2)cc1,0.0918,60,50.4,19.8,,,,5,16.5,11.7,5.08,10.9,inhibition of growth at 10 µM (NCI-H226): 7.41%; inhibition of growth at 10 µM (UACC-62): 8.47%; inhibition of growth at 10 µM (NCI-H522): 5.22%; inhibition of growth at 10 µM (MDA-MB-231 [6]): 5.52%
NS(=O)(=O)c1cccc(Nc2cc(-c3ccccc3)nc(SCC(=O)c3ccc(Br)cc3)n2)c1,0.525,,,,,,,,,,,,
COc1ccc(C(=O)CSc2nc(Nc3cccc(S(N)(=O)=O)c3)cc(-c3ccccc3)n2)cc1,0.3,28,42.5,30.9,13.8,15.8,> 20,7.16,16.4,23.7,,12.7,Ki (Carbonic anhydrase 1): > 20 µM; inhibition of growth at 10 µM (U-251): 6.41%; inhibition of growth at 10 µM (OVCAR-4): 12.2%; inhibition of growth at 10 µM (A549): 7.98%; inhibition of growth at 10 µM (UACC-62): 8.31%; inhibition of growth at 10 µM (Malme-3M): 7.42%; inhibition of growth at 10 µM (T47D [5]): 20.2%; inhibition of growth at 10 µM (MOLT-4): 26.2%; inhibition of growth at 10 µM (NCI-H522): 6.62%; inhibition of growth at 10 µM (MDA-MB-231 [6]): 6.45%; inhibition of growth at 10 µM (KM12): 6.88%; inhibition of growth at 10 µM (RPMI-8226): 6.7%; inhibition of growth at 10 µM (CCRF-CEM): 16.9%; inhibition of growth at 10 µM (SNB-75): 12.3%
NS(=O)(=O)c1cccc(Nc2cc(-c3ccccc3)nc(SCC(=O)c3ccccc3)n2)c1,0.724,,,,,,,,,,,,
COc1ccc(C(=O)CSc2nc(Nc3cccc(S(N)(=O)=O)c3)c(C#N)c(C(C)C)n2)cc1,0.0949,,,,6.79,7.35,> 20,10.8,20.4,11,7.32,18.5,inhibition of growth at 10 µM (ACHN): 6.14%; inhibition of growth at 10 µM (MDA-MB-468): 8.74%; inhibition of growth at 10 µM (MCF7 [4]): 12.9%; inhibition of growth at 10 µM (RXF 393): 10.2%; inhibition of growth at 10 µM (SNB-19): 5.74%; inhibition of growth at 10 µM (UACC-62): 11.6%; inhibition of growth at 10 µM (HL-60): 6.4%; inhibition of growth at 10 µM (T47D [5]): 14.2%; inhibition of growth at 10 µM (MOLT-4): 13.4%; inhibition of growth at 10 µM (NCI-H522): 6.43%; inhibition of growth at 10 µM (NCI-H23): 11%; inhibition of growth at 10 µM (RPMI-8226): 5.91%; inhibition of growth at 10 µM (CCRF-CEM): 6.87%; inhibition of growth at 10 µM (HOP-92): 11.6%
COc1ccc(OC)c(-c2nc(SCC(=O)c3ccccc3)nc(Nc3cccc(S(N)(=O)=O)c3)c2C#N)c1,5.05,,,,,,> 20,,,,,,
O=c1[nH]cc(F)c(=O)[nH]1 [FLUOROURACIL],,6.7,3.5,2.46,,,,,,,,,
